{"source": "patent US20250221966A1", "about": "“RXFP1 AGONISTS” (BRISTOL-MYERS SQUIBB COMPANY, priority 2021, published 2025)"}
{"target": "T1, human RXFP1 (Homo sapiens, UniProt Q9HBX9)", "T1 construct": "expressed in transfected cells", "T1 sequence (Q9HBX9 1-757)": "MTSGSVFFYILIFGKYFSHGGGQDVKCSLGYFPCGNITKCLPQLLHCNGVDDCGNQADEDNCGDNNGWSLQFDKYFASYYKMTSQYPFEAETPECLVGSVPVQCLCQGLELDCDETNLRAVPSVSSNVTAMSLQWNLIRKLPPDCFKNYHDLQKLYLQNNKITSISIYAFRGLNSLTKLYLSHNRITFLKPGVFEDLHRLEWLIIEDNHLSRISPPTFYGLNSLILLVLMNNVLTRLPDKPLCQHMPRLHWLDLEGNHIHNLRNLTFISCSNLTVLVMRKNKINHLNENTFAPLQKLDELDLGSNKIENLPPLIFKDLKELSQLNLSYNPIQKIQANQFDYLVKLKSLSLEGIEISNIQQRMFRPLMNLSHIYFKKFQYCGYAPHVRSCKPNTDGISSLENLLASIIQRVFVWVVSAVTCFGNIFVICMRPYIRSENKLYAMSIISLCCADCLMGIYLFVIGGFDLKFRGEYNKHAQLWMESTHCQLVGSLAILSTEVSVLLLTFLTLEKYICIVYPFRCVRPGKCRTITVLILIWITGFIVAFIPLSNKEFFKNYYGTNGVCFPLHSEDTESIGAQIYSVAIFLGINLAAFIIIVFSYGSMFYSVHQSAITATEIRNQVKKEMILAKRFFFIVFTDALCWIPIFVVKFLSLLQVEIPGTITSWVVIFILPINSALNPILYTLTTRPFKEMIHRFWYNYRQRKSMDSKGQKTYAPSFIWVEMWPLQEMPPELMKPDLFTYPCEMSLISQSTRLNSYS", "assay": "RXFP1 cAMP assay (hRXFP1 HEK293 cAMP assay, HTRF)", "format": "cell-based", "conditions": "HEK293 cells stably expressing human RXFP1, 30 min at room temperature, read-out: cAMP hRXFP1 HEK293 Assay EC50", "procedure,_shortened": "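Intracellular cAMP was read by HTRF, with potency fitted to a 4-parameter logistic curve. Compound exposure (0.010 nM–50 μM final, 2% DMSO) lasted 30 min at room temperature. Cells were hRXFP1-HEK293 at 1500 per well in IBMX-containing (0.5 mM) HEPES-buffered HBSS.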", "units": {"EC50": "µM"}}
{"smiles": "COc1ccc(C2=NOC3CC(CO)CC23)cc1C(=O)N[C@H]1[C@@H](C(=O)Nc2ccc(F)c(C(F)(F)F)c2)[C@H]2CC[C@@H]1/C2=C\\c1csc(C)n1", "note": "(stereo partly shown) [compound 805]", "EC50": 0.0041}
{"smiles": "COc1ccc(-c2cc(C(C)CC(=O)O)ccc2F)cc1C(=O)N[C@H]1[C@@H](C(=O)Nc2ccc(F)c(C(F)(F)F)c2)[C@H]2CC[C@@H]1/C2=C\\C1CC1", "note": "(stereo partly shown) [compound 888]", "EC50": 0.0027}
{"smiles": "COC(=O)N1CC=C(c2ccc(OC)c(C(=O)N[C@@H]3C4CCC(C4=C(C)C)[C@@H]3C(=O)Nc3ccc(F)c(C(F)(F)F)c3)c2)CC1", "note": "(stereo partly shown) [compound 143]", "EC50": 2.8}
{"smiles": "COc1ccc(C2=NOC(C(=O)O)C2)cc1C(=O)N[C@@H]1C2CCC(/C2=C/C(F)(F)F)[C@@H]1C(=O)Nc1ccc(F)c(C(F)(F)F)c1", "note": "(stereo partly shown) [compound 389]", "EC50": 0.054}
{"smiles": "COc1ccc(-c2cc([C@H](OC(=O)NC3CCC3)C(F)(F)F)ccc2F)cc1C(=O)N[C@@H]1C2CCC(/C2=C/C2CC(F)(F)C2)[C@@H]1C(=O)Nc1ccc(F)c(C(F)(F)F)c1", "note": "(stereo partly shown) [compound 359]", "EC50": 0.002}
{"smiles": "COc1ccc(C2=NOC3CS(=O)(=O)CC23)cc1C(=O)N[C@@H]1C2CCC(/C2=C/C2CC2)[C@@H]1C(=O)Nc1ccc(F)c(C(F)(F)F)c1", "note": "(mixture of isomers) [Example 442, (1R,2S,3R,4R,Z)-7-(cyclopropylmethylene)-3-(5-(5,5-dioxido-3a,4,6,6a-tetrahydrothieno[3,4-d]isoxazol-3-yl)-2-methoxybenzamido)-N-(4-fluoro-3-(trifluoromethyl)phenyl)bicyclo[2.2.1]heptane-2-carboxamide]", "EC50": 0.025}
{"smiles": "COc1ccc(C2=NOC3COCC23)cc1C(=O)N[C@H]1[C@@H](C(=O)NCc2ccn(C)n2)[C@H]2CC[C@@H]1/C2=C\\C1CC1", "note": "(stereo partly shown) [compound 722]", "EC50": 4.18}
{"smiles": "CC(C)=C1C2CCC1[C@H](C(=O)Nc1ccc(F)c(C(F)(F)F)c1)[C@@H]2NC(=O)c1ccccc1N(C)C", "note": "(stereo partly shown) [compound 119]", "EC50": 3.9}
{"smiles": "COc1ccc(-c2cc(C(NC(C)=O)C(=O)O)ccc2F)cc1C(=O)N[C@@H]1C2CCC(/C2=C/C2CC2)[C@@H]1C(=O)Nc1ccc(F)c(C(F)(F)F)c1", "note": "(stereo partly shown) [Example 182]", "EC50": 0.005}
{"smiles": "COc1ccc(C2=NOC3CC(C#N)CC23)cc1C(=O)N[C@H]1[C@@H](C(=O)N[C@H](C)C2(C)CC2)[C@H]2CC[C@@H]1/C2=C\\C1CC1", "note": "(stereo partly shown) [compound 760]", "EC50": 0.0012}
{"smiles": "COc1ccc(C2=NOC(C)(CO)C2)cc1C(=O)N[C@H]1[C@@H](C(=O)Nc2ccc(F)c(C(F)(F)F)c2)[C@H]2CC[C@@H]1C2=CC1CC1", "note": "(single isomer, unassigned) [compound 571]", "EC50": 0.0653}
{"smiles": "COc1ccc(-c2cc(C3=NOC4COCC34)ccc2F)cc1C(=O)N[C@H]1[C@@H](C(=O)Nc2ccc(F)c(C(F)(F)F)c2)[C@H]2CC[C@@H]1/C2=C\\C1CC1", "note": "(stereo partly shown) [compound 911]", "EC50": 0.0076}
{"smiles": "COc1cc(F)c(F)cc1C(=O)N[C@@H]1C2CCC(C2=C(C)C)[C@@H]1C(=O)Nc1ccnc(C(F)(F)F)c1", "note": "(stereo partly shown) [compound 75]", "EC50": 2.6}
{"smiles": "COc1ccc(C2CC3CN(C(=O)OC(C)(C)C)CC32)cc1C(=O)N[C@H]1[C@@H](C(=O)Nc2ccc(F)c(C(F)(F)F)c2)[C@H]2CC[C@@H]1/C2=C\\C1CC1", "note": "(single isomer, unassigned) [compound 731]", "EC50": 0.01}
{"smiles": "COc1ccc(C2=NOC3CCC(O)C23)cc1C(=O)N[C@H]1[C@@H](C(=O)Nc2ccc(F)c(C(F)(F)F)c2)[C@H]2CC[C@@H]1/C2=C\\C1CC1", "note": "(single isomer, unassigned) [compound 496]", "EC50": 0.0105}
{"smiles": "COc1ccc(/C=C2\\C3CCC2[C@H](C(=O)Nc2ccc(F)c(C(F)(F)F)c2)[C@@H]3NC(=O)c2cc(F)c(F)cc2OC)cc1", "note": "(stereo partly shown) [compound 20]", "EC50": 0.94}
{"smiles": "COc1ccc(-c2cc(C(O)C(=O)O)ccc2F)cc1C(=O)NC1C2CCC(/C2=C/CCC(C)(C)C)C1C(=O)Nc1ccc(F)c(C(F)(F)F)c1", "note": "(stereo not shown) [compound 354]", "EC50": 0.011}
{"smiles": "COc1ccc(C2=NOC3CC(C(C)O)CC23)cc1C(=O)N[C@H]1[C@@H](C(=O)Nc2ccc(F)c(C(F)(F)F)c2)[C@H]2CC[C@@H]1/C2=C\\C1CC1", "note": "(stereo partly shown) [compound 855]", "EC50": 0.0045}
{"smiles": "CCC/C=C/C=C1\\C2CCC1[C@H](C(=O)Nc1ccc(F)c(C(F)(F)F)c1)[C@@H]2NC(=O)c1cc(F)c(F)cc1OC", "note": "(stereo partly shown) [compound 45]", "EC50": 0.059}
{"smiles": "COc1cc(C)c(C2=NOC3CC(CO)CC23)cc1C(=O)N[C@H]1[C@@H](C(=O)Nc2ccc(F)c(C(F)(F)F)c2)[C@H]2CC[C@@H]1C2CC1CC1", "note": "(stereo partly shown) [compound 739]", "EC50": 0.0034}
{"smiles": "COCCN1CCCC1c1ccc(OC)c(C(=O)N[C@@H]2C3CCC(C3=CC3CC3)[C@@H]2C(=O)Nc2ccc(F)c(C(F)(F)F)c2)c1", "note": "(stereo partly shown) [compound 666]", "EC50": 0.373}
{"smiles": "COc1ccc(-c2cnc3n2CC(O)CC3)cc1C(=O)N[C@H]1[C@@H](C(=O)Nc2ccc(F)c(C(F)(F)F)c2)[C@H]2CC[C@@H]1/C2=C\\C1CC1", "note": "(stereo partly shown) [compound 752]", "EC50": 0.0025}
{"smiles": "COc1ccc(C2CCN(C(=O)C(C)(C)O)C2)cc1C(=O)N[C@@H]1C2CCC(C2=CC2CC2)[C@@H]1C(=O)Nc1ccc(F)c(C(F)(F)F)c1", "note": "(stereo partly shown) [compound 555]", "EC50": 0.0414}
{"smiles": "COc1ccc(-c2ccc3c(c2)nnn3CC(=O)O)cc1C(=O)N[C@@H]1C2CCC(/C2=C/C(F)(F)F)[C@@H]1C(=O)Nc1ccc(F)c(C(F)(F)F)c1", "note": "(stereo partly shown) [compound 312]", "EC50": 0.009}
{"smiles": "O=C(NC1CCC1)OC(c1ccc(F)c(-c2ccc(OCCO)c(C(=O)N[C@H]3[C@@H](C(=O)Nc4ccc(F)c(C(F)(F)F)c4)[C@H]4CC[C@@H]3/C4=C\\C3CC3)c2)c1)C(F)(F)F", "note": "(stereo partly drawn) [Example 253, 1-(3′-(((1R,2R,3S,4R,Z)-7-(cyclopropylmethylene)-3-((4-fluoro-3-(trifluoromethyl)phenyl)carbamoyl)bicyclo[2.2.1]heptan-2-yl)carbamoyl)-6-fluoro-4′-(2-hydroxyethoxy)-[1,1′-biphenyl]-3-yl)-2,2,2-trifluoroethyl cyclobutylcarbamate]", "EC50": 0.017}
{"smiles": "COc1ccccc1C(=O)N[C@H]1[C@@H](C(=O)Nc2ccc(F)c(C(F)(F)F)c2)[C@H]2CC[C@@H]1/C2=C\\c1ccccc1", "note": "[compound 90]", "EC50": 0.33}
{"smiles": "COc1ccc(C2=NOC(CC(C)(C)O)C2)cc1C(=O)N[C@H]1[C@@H](C(=O)Nc2ccc(F)c(C(F)(F)F)c2)[C@H]2CC[C@@H]1/C2=C\\C1CC1", "note": "(single isomer, unassigned) [compound 499]", "EC50": 0.011}
{"smiles": "COc1c(F)cc(C2=NOC(CO)C2)cc1C(=O)N[C@H]1[C@@H](C(=O)Nc2ccc(F)c(C(F)(F)F)c2)[C@H]2CC[C@@H]1/C2=C\\CC(O)C(F)(F)F", "note": "(stereo partly shown) [compound 835]", "EC50": 0.0039}
{"smiles": "COc1ccc(C2=NOC3COCC23)cc1C(=O)N[C@H]1[C@@H](C(=O)NCCc2ccccc2C)[C@H]2CC[C@@H]1/C2=C\\C1CC1", "note": "(stereo partly shown) [compound 520]", "EC50": 0.0193}
{"smiles": "COc1ccc(-c2cnn(CC(=O)O)c2)cc1C(=O)N[C@@H]1C2CCC(/C2=C/c2ccccc2)[C@@H]1C(=O)Nc1ccc(F)c(C(F)(F)F)c1", "note": "(stereo partly shown) [compound 340]", "EC50": 0.062}
{"smiles": "COc1ccc(C2=NOC3COCC23)cc1C(=O)N[C@H]1[C@@H](C(=O)NCc2cc(C)ccc2C(F)(F)F)[C@H]2CC[C@@H]1/C2=C\\C1CC1", "note": "(stereo partly shown) [compound 659]", "EC50": 0.347}
{"smiles": "COc1ccc(-c2cc(C(=O)NS(C)(=O)=O)ccc2F)cc1C(=O)N[C@@H]1C2CCC(/C2=C/Br)[C@@H]1C(=O)Nc1ccc(F)c(C(F)(F)F)c1", "note": "(stereo partly shown) [compound 161]", "EC50": 0.11}
{"smiles": "COc1ccc(-c2cc([C@H](O)C(F)(F)F)ccc2F)cc1C(=O)N[C@H]1[C@@H](C(=O)Nc2ccc(F)c(C(F)(F)F)c2)[C@H]2CC[C@@H]1/C2=C\\C1CCC1", "note": "[compound 921]", "EC50": 0.0082}
{"smiles": "COc1ccc(C2=NO[C@@H]3[C@H](O)CC[C@H]23)cc1C(=O)N[C@H]1[C@@H](C(=O)Nc2ccc(F)c(C(F)(F)F)c2)[C@H]2CC[C@@H]1/C2=C\\C1CC1", "note": "(single isomer, unassigned) [compound 583]", "EC50": 0.0749}
{"smiles": "COc1ccc(C2=NOC3COCC23)cc1C(=O)N[C@H]1[C@@H](C(=O)NCc2cccnc2C)[C@H]2CC[C@@H]1/C2=C\\C1CC1", "note": "(stereo partly shown) [compound 721]", "EC50": 3.91}
{"smiles": "COc1cc(C2CC2)c(C2=NOC3COCC23)cc1C(=O)N[C@H]1C(C(=O)Nc2ccc(F)c(C(F)(F)F)c2)[C@H]2CC[C@@H]1/C2=C\\C1CC1", "note": "(single isomer, unassigned) [Example 626]", "EC50": 0.171}
{"smiles": "COc1cc(F)c(F)cc1C(=O)N[C@@H]1C2CCC(/C2=C/c2ccccc2)[C@@H]1C(=O)Nc1cccc(S(=O)(=O)C(F)(F)F)c1", "note": "(stereo partly shown) [Example 127]", "EC50": 0.049}
{"smiles": "COc1c(F)cc(C2=NOC(C)(CO)C2)cc1C(=O)N[C@H]1[C@@H](C(=O)N[C@H](C)C2(C)CC2)[C@H]2CC[C@@H]1/C2=C\\C1CC1", "note": "(stereo partly shown) [compound 744]", "EC50": 0.0025}
{"smiles": "CC(F)(F)COc1ccc(C2=NOC3COCC23)cc1C(=O)N[C@@H]1C2CCC(/C2=C/C2CC2)[C@@H]1C(=O)Nc1ccc(F)c(C(F)(F)F)c1", "note": "(stereo partly shown) [compound 790]", "EC50": 0.0049}
{"smiles": "COc1ccc(-c2cc(C3=NOC4COCC34)ccc2F)cc1C(=O)N[C@H]1[C@@H](C(=O)Nc2ccc(F)c(C(F)(F)F)c2)[C@H]2CC[C@@H]1/C2=C\\C1CC1", "note": "(stereo partly shown) [compound 910]", "EC50": 0.0034}
